# Experiments:
# Assay type in all cases: functional
# [1] = system: MDA-MB-468; assay: Cytotoxicity against human MDA-MB-468 cells assessed as growth inhibition at 10 uM after 48 hrs by SRB assay relative to control; details: MDA-MB-468, 48 h, read-out: GI
# [2] = system: BT-549; assay: Cytotoxicity against human BT549 cells assessed as growth inhibition at 10 uM after 48 hrs by SRB assay relative to control; details: BT-549, 48 h, read-out: GI
# [3] = system: Hs-578T; assay: Cytotoxicity against human Hs578T cells assessed as growth inhibition at 10 uM after 48 hrs by SRB assay relative to control; details: read-out: GI
# [4] = system: MDA-MB-231; assay: Cytotoxicity against human MDA-MB-231 cells assessed as growth inhibition at 10 uM after 48 hrs by SRB assay relative to control; details: MDA-MB-231, 48 h, read-out: GI
# [5] = system: MCF7; assay: Cytotoxicity against human MCF7 cells assessed as growth inhibition at 10 uM after 48 hrs by SRB assay relative to control; details: MCF7, 48 h, read-out: GI
# [6] = system: DU-145; assay: Cytotoxicity against human DU145 cells assessed as growth inhibition at 10 uM after 48 hrs by SRB assay relative to control; details: DU-145, 48 h, read-out: GI
# [7] = system: UO-31; assay: Cytotoxicity against human UO31 cells assessed as growth inhibition at 10 uM after 48 hrs by SRB assay relative to control; details: UO-31, 48 h, read-out: GI
# [8] = system: CAKI-1; assay: Cytotoxicity against human Caki1 cells assessed as growth inhibition at 10 uM after 48 hrs by SRB assay relative to control; details: CAKI-1, 48 h, read-out: GI
# [9] = system: SK-OV-3; assay: Cytotoxicity against human SKOV3 cells assessed as growth inhibition at 10 uM after 48 hrs by SRB assay relative to control; details: SK-OV-3, 48 h, read-out: GI
# [10] = system: A498; assay: Cytotoxicity against human A498 cells assessed as growth inhibition at 10 uM after 48 hrs by SRB assay relative to control; details: A498, 48 h, read-out: GI
# [11] = system: OVCAR-8; assay: Cytotoxicity against human OVCAR8 cells assessed as growth inhibition at 10 uM after 48 hrs by SRB assay relative to control; details: OVCAR-8, 48 h, read-out: GI
# [12] = system: OVCAR-5; assay: Cytotoxicity against human OVCAR5 cells assessed as growth inhibition at 10 uM after 48 hrs by SRB assay relative to control; details: OVCAR-5, 48 h, read-out: GI
# [13] = system: OVCAR-3; assay: Cytotoxicity against human OVCAR3 cells assessed as growth inhibition at 10 uM after 48 hrs by SRB assay relative to control; details: OVCAR-3, 48 h, read-out: GI
# [14] = system: UACC-62; assay: Cytotoxicity against human UACC62 cells assessed as growth inhibition at 10 uM after 48 hrs by SRB assay relative to control; details: UACC-62, 48 h, read-out: GI
# [15] = system: UACC-257; assay: Cytotoxicity against human UACC257 cells assessed as growth inhibition at 10 uM after 48 hrs by SRB assay relative to control; details: UACC-257, 48 h, read-out: GI
# [16] = system: SK-MEL-5; assay: Cytotoxicity against human SK-MEL-5 cells assessed as growth inhibition at 10 uM after 48 hrs by SRB assay relative to control; details: SK-MEL-5, 48 h, read-out: GI
# [17] = system: SK-MEL-28; assay: Cytotoxicity against human SK-MEL-28 cells assessed as growth inhibition at 10 uM after 48 hrs by SRB assay relative to control; details: SK-MEL-28, 48 h, read-out: GI
# [18] = system: M14; assay: Cytotoxicity against human M14 cells assessed as growth inhibition at 10 uM after 48 hrs by SRB assay relative to control; details: M14, 48 h, read-out: GI
# [19] = system: SK-MEL-2; assay: Cytotoxicity against human SK-MEL-2 cells assessed as growth inhibition at 10 uM after 48 hrs by SRB assay relative to control; details: SK-MEL-2, 48 h, read-out: GI
# [20] = system: U-251; assay: Cytotoxicity against human U251 cells assessed as growth inhibition at 10 uM after 48 hrs by SRB assay relative to control; details: U-251, 48 h, read-out: GI
# [21] = system: SNB-75; assay: Cytotoxicity against human SNB75 cells assessed as growth inhibition at 10 uM after 48 hrs by SRB assay relative to control; details: SNB-75, 48 h, read-out: GI
# [22] = system: SF-539; assay: Cytotoxicity against human SF539 cells assessed as growth inhibition at 10 uM after 48 hrs by SRB assay relative to control; details: SF-539, 48 h, read-out: GI
# [23] = system: SW-620; assay: Cytotoxicity against human SW620 cells assessed as growth inhibition at 10 uM after 48 hrs by SRB assay relative to control; details: SW-620, 48 h, read-out: GI
# [24] = system: HCC 2998; assay: Cytotoxicity against human HCC2998 cells assessed as growth inhibition at 10 uM after 48 hrs by SRB assay relative to control; details: HCC 2998, 48 h, read-out: GI
# [25] = system: HCT-116; assay: Cytotoxicity against human HCT116 cells assessed as growth inhibition at 10 uM after 48 hrs by SRB assay relative to control; details: HCT-116, 48 h, read-out: GI
# [26] = system: NCI-H522; assay: Cytotoxicity against human NCI-H522 cells assessed as growth inhibition at 10 uM after 48 hrs by SRB assay relative to control; details: NCI-H522, 48 h, read-out: GI
# [27] = system: NCI-H23; assay: Cytotoxicity against human NCI-H23 cells assessed as growth inhibition at 10 uM after 48 hrs by SRB assay relative to control; details: NCI-H23, 48 h, read-out: GI
# [28] = system: NCI-H226; assay: Cytotoxicity against human NCI-H226 cells assessed as growth inhibition at 10 uM after 48 hrs by SRB assay relative to control; details: NCI-H226, 48 h, read-out: GI
# [29] = system: HOP-62; assay: Cytotoxicity against human HOP62 cells assessed as growth inhibition at 10 uM after 48 hrs by SRB assay relative to control; details: HOP-62, 48 h, read-out: GI
# [30] = system: HOP-92; assay: Cytotoxicity against human HOP92 cells assessed as growth inhibition at 10 uM after 48 hrs by SRB assay relative to control; details: HOP-92, 48 h, read-out: GI
# [31] = system: SR; assay: Cytotoxicity against human SR cells assessed as growth inhibition at 10 uM after 48 hrs by SRB assay relative to control; details: read-out: GI
# [32] = system: MOLT-4; assay: Cytotoxicity against human MOLT4 cells assessed as growth inhibition at 10 uM after 48 hrs by SRB assay relative to control; details: MOLT-4, 48 h, read-out: GI
# [33] = system: HL-60(TB); assay: Cytotoxicity against human HL-60(TB) cells assessed as growth inhibition at 10 uM after 48 hrs by SRB assay relative to control; details: HL-60, 48 h, read-out: GI
# [34] = system: CCRF-CEM; assay: Cytotoxicity against human CCRF-CEM cells assessed as growth inhibition at 10 uM after 48 hrs by SRB assay relative to control; details: read-out: GI
Structure (SMILES),inhibition of growth at 10 µM [1],inhibition of growth at 10 µM [2],inhibition of growth at 10 µM [3],inhibition of growth at 10 µM [4],inhibition of growth at 10 µM [5],inhibition of growth at 10 µM [6],inhibition of growth at 10 µM [7],inhibition of growth at 10 µM [8],inhibition of growth at 10 µM [9],inhibition of growth at 10 µM [10],inhibition of growth at 10 µM [11],inhibition of growth at 10 µM [12],inhibition of growth at 10 µM [13],inhibition of growth at 10 µM [14],inhibition of growth at 10 µM [15],inhibition of growth at 10 µM [16],inhibition of growth at 10 µM [17],inhibition of growth at 10 µM [18],inhibition of growth at 10 µM [19],inhibition of growth at 10 µM [20],also measured
O=c1oc2cc(N3CCOCC3)ccc2cc1-c1nc2ccccc2[nH]1,< 20%,< 20%,< 20%,< 20%,62.1%,< 20%,24.9%,< 20%,< 20%,< 20%,< 20%,< 20%,< 20%,< 20%,< 20%,< 20%,< 20%,< 20%,< 20%,< 20%,inhibition of growth at 10 µM [21]: < 20%; inhibition of growth at 10 µM [22]: < 20%; inhibition of growth at 10 µM [23]: < 20%; inhibition of growth at 10 µM [24]: < 20%; inhibition of growth at 10 µM [25]: < 20%; inhibition of growth at 10 µM [26]: < 20%; inhibition of growth at 10 µM [27]: < 20%; inhibition of growth at 10 µM [28]: < 20%; inhibition of growth at 10 µM [29]: < 20%; inhibition of growth at 10 µM [30]: 20.7%; inhibition of growth at 10 µM [31]: < 20%; inhibition of growth at 10 µM [32]: < 20%; inhibition of growth at 10 µM [33]: < 20%; inhibition of growth at 10 µM [34]: < 20%
O=c1oc2cc(Br)ccc2cc1-c1nc2ccccc2[nH]1,< 20%,< 20%,25.1%,26%,30%,23.6%,22.7%,< 20%,< 20%,< 20%,< 20%,< 20%,< 20%,< 20%,< 20%,< 20%,< 20%,< 20%,< 20%,< 20%,inhibition of growth at 10 µM [21]: 22.9%; inhibition of growth at 10 µM [22]: < 20%; inhibition of growth at 10 µM [23]: < 20%; inhibition of growth at 10 µM [24]: < 20%; inhibition of growth at 10 µM [25]: < 20%; inhibition of growth at 10 µM [26]: 20.6%; inhibition of growth at 10 µM [27]: < 20%; inhibition of growth at 10 µM [28]: < 20%; inhibition of growth at 10 µM [29]: < 20%; inhibition of growth at 10 µM [30]: 20.1%; inhibition of growth at 10 µM [31]: 21.5%; inhibition of growth at 10 µM [32]: < 20%; inhibition of growth at 10 µM [33]: < 20%; inhibition of growth at 10 µM [34]: < 20%
